Assays:
BRAF V600E = target: T1, BRAF V600E (Homo sapiens, UniProt P15056, V600E); test: Cellular assay of target protein degradation, T-Rex 293 cells stably transfected with HA-BRAF_V600E (HA immunofluorescence, high content imaging); type: cell-based; conditions: T-Rex 293 HA-BRAF V600E; for DC50: half maximal degradation, read-out: BRaf V600E DC50; for Dmax: maximum degradation observed
T1 construct: expressed in transfected cells
In short: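 Doxycycline-induced (1 ng/mL) T-Rex 293 cells expressing HA-BRAF V600E treated 24 h at 37 °C with compound at 1 μM to 0.1 nM final in 0.1% DMSO. Remaining HA-tagged protein quantified by fixed-cell anti-HA immunofluorescence and high-content imaging; DC50 and Dmax (% of control) derived.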

BRAF G466V = target: T2, BRAF G466V (Homo sapiens, UniProt P15056, G466V); test: Cellular assay of target protein degradation, T-Rex 293 cells stably transfected with HA-BRAF G466V (HA immunofluorescence, high content imaging); type: cell-based; conditions: T-Rex 293 HA-BRAF G466V; for DC50: half maximal degradation, read-out: BRaf G466V DC50; for Dmax: maximum degradation observed
T2 construct: expressed in transfected cells
In short: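 Doxycycline-induced (0.75 ng/mL) cells treated 24 h at 37 °C with compound from 30 nM to 3 pM (0.1% DMSO). After fixation and permeabilisation, HA-tagged BRAF G466V immunostained and quantified by high-content imaging. DC50 and Dmax (percent of control) derived.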

T1 sequence (P15056 whole entry V600E): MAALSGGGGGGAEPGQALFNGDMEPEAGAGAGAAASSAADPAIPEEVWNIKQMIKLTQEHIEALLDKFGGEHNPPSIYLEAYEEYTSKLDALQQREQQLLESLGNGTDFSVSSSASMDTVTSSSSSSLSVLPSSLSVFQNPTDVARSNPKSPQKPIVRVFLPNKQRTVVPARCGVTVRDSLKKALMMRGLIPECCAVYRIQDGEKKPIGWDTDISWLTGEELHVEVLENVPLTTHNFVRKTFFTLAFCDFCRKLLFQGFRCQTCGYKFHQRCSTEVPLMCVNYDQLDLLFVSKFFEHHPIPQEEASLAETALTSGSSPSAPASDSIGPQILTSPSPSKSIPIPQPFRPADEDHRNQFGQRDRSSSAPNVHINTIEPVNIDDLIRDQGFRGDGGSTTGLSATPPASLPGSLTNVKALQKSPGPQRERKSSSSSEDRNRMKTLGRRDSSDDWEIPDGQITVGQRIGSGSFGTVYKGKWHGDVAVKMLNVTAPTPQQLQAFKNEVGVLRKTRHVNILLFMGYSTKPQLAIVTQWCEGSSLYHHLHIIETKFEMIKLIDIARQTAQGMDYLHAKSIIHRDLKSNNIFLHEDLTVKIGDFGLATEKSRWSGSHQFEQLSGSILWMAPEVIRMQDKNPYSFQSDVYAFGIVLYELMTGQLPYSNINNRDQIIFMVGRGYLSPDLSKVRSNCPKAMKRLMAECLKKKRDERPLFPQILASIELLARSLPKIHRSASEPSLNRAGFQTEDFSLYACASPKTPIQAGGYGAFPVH
T2 sequence (P15056 whole entry G466V): as the sequence (P15056 whole entry V600E) above, with G466V, E600V counted along it

SMILES	DC50 (BRAF V600E) [nM]	Dmax (BRAF V600E) [%]	DC50 (BRAF G466V) [nM]	Dmax (BRAF G466V) [%]
O=C1CCC(N2Cc3cc(OCCCCN4CCN(c5ccc(-c6cnc7[nH]cc(C(=O)c8c(F)ccc(NS(=O)(=O)N9CCC(F)(F)C9)c8F)c7c6)cc5)CC4)ccc3C2=O)C(=O)N1 (stereo not shown) [Compound 251, N-[3-(5-{4-[4-(4-{[2-(2,6-dioxopiperidin-3-yl)-1-oxo-2,3-dihydro-1H-isoindol-5-yl]oxy}butyl)piperazin-1-yl]phenyl}-1H-pyrrolo[2,3-b]pyridine-3-carbonyl)-2,4-difluorophenyl]-3,3-difluoropyrrolidine-1-sulfonamide]	5 to 50	35 to 70	1 to 10	35 to 70
Nc1ccc(F)c(C(=O)c2c[nH]c3ncc(-c4ccc(N5CCC(CN6CCC(c7ccc8c(c7)CN([C@H]7CCC(=O)NC7=O)C8=O)CC6)CC5)cc4)cc23)c1F [Compound 254, (3S)-3-(5-{1-[(1-{4-[3-(3-amino-2,6-difluorobenzoyl)-1H-pyrrolo[2,3-b]pyridin-5-yl]phenyl}piperidin-4-yl)methyl]piperidin-4-yl}-1-oxo-2,3-dihydro-1H-isoindol-2-yl) piperidine-2,6-dione]	> 500	–	< 1	< 35
N#Cc1cc(-c2cnc3[nH]cc(C(=O)c4c(F)ccc(NS(=O)(=O)N5CC[C@@H](F)C5)c4F)c3c2)ccc1N1CCC(CN2CCC(c3ccc4c(c3)CN(C3CCC(=O)NC3=O)C4=O)CC2)CC1 (stereo partly drawn) [Compound 255, (3R)-N-[3-(5-{3-cyano-4-[4-({4-[2-(2,6-dioxopiperidin-3-yl)-1-oxo-2,3-dihydro-1H-isoindol-5-yl]piperidin-1-yl}methyl)piperidin-1-yl]phenyl}-1H-pyrrolo [2,3-b]pyridine-3-carbonyl)-2,4-difluorophenyl]-3-fluoropyrrolidine-1-sulfonamide]	5 to 50	35 to 70	< 1	> 70
COc1cc(-c2cnc3[nH]cc(C(=O)c4c(F)ccc(NS(=O)(=O)N5CC[C@@H](F)C5)c4F)c3c2)ccc1N1CCC(CN2CCC(c3ccc4c(c3)CN([C@H]3CCC(=O)NC3=O)C4=O)CC2)CC1 [Compound 256, (3R)-N-{3-[5-(4-{4-[(4-{2-[(3S)-2,6-dioxopiperidin-3-yl]-1-oxo-2,3-dihydro-1H-isoindol-5-yl}piperidin-1-yl)methyl]piperidin-1-yl}-3-methoxyphenyl)-1H-pyrrolo[2,3-b]pyridine-3-carbonyl]-2,4-difluorophenyl}-3-fluoropyrrolidine-1-sulfonamide]	5 to 50	35 to 70	< 1	> 70
CNc1cc(-c2cnc3[nH]cc(C(=O)c4c(F)ccc(NS(=O)(=O)N5CC[C@@H](F)C5)c4F)c3c2)ccc1N1CCC(CN2CCC(c3ccc4c(c3)CN(C3CCC(=O)NC3=O)C4=O)CC2)CC1 (stereo partly drawn) [Compound 257, (3R)-N-[3-(5-{4-[4-({4-[2-(2,6-dioxopiperidin-3-yl)-1-oxo-2,3-dihydro-1H-isoindol-5-yl]piperidin-1-yl}methyl)piperidin-1-yl]-3-(methylamino)phenyl}-1H-pyrrolo[2,3-b]pyridine-3-carbonyl)-2,4-difluorophenyl]-3-fluoropyrrolidine-1-sulfonamide]	5 to 50	35 to 70	1 to 10	> 70
O=C1CC[C@H](N2Cc3cc(N4CCC(CN5CCC6(CCN(c7ccc(-c8cnc9[nH]cc(C(=O)c%10c(F)ccc(NS(=O)(=O)N%11CC[C@@H](F)C%11)c%10F)c9c8)cc7F)CC6)C5)CC4)ccc3C2=O)C(=O)N1 [Compound 258, (3R)-N-{3-[5-(4-{2-[(1-{2-[(3S)-2,6-dioxopiperidin-3-yl]-1-oxo-2,3-dihydro-1H-isoindol-5-yl}piperidin-4-yl)methyl]-2,8-diazaspiro[4.5]decan-8-yl}-3-fluorophenyl)-1H-pyrrolo[2,3-b]pyridine-3-carbonyl]-2,4-difluorophenyl}-3-fluoropyrrolidine-1-sulfonamide]	< 5	35 to 70	< 1	35 to 70
O=C1CC[C@@H](N2Cc3cc(N4CCC(CN5CCC6(CCN(c7ccc(-c8cnc9[nH]cc(C(=O)c%10c(F)ccc(NS(=O)(=O)N%11CC[C@@H](F)C%11)c%10F)c9c8)cc7F)CC6)C5)CC4)ccc3C2=O)C(=O)N1 [Compound 259, (3R)-N-{3-[5-(4-{2-[(1-{2-[(3R)-2,6-dioxopiperidin-3-yl]-1-oxo-2,3-dihydro-1H-isoindol-5-yl}piperidin-4-yl)methyl]-2,8-diazaspiro[4.5]decan-8-yl}-3-fluorophenyl)-1H-pyrrolo[2,3-b]pyridine-3-carbonyl]-2,4-difluorophenyl}-3-fluoropyrrolidine-1-sulfonamide]	< 5	35 to 70	< 1	35 to 70
N#Cc1cc(-c2cnc3[nH]cc(C(=O)c4c(F)ccc(NS(=O)(=O)N5CC[C@@H](F)C5)c4F)c3c2)cc(C#N)c1N1CCC(CN2CCC(c3ccc4c(c3)CN([C@H]3CCC(=O)NC3=O)C4=O)CC2)CC1 [Compound 260, (3R)-N-{3-[5-(3,5-dicyano-4-{4-[(4-{2-[(3S)-2,6-dioxopiperidin-3-yl]-1-oxo-2,3-dihydro-1H-isoindol-5-yl}piperidin-1-yl)methyl]piperidin-1-yl}phenyl)-1H-pyrrolo [2,3-b]pyridine-3-carbonyl]-2,4-difluorophenyl}-3-fluoropyrrolidine-1-sulfonamide]	5 to 50	35 to 70	1 to 10	35 to 70
N#Cc1cc(-c2cnc3[nH]cc(C(=O)c4c(F)ccc(NS(=O)(=O)N5CC[C@@H](F)C5)c4F)c3c2)cc(C#N)c1N1CCC(CN2CCC(c3ccc4c(c3)CN(C3CCC(=O)NC3=O)C4=O)CC2)CC1 (stereo partly drawn) [Compound 261, (3R)-N-[3-(5-{3,5-dicyano-4-[4-({4-[2-(2,6-dioxopiperidin-3-yl)-1-oxo-2,3-dihydro-1H-isoindol-5-yl]piperidin-1-yl}methyl)piperidin-1-yl]phenyl}-1H-pyrrolo [2,3-b]pyridine-3-carbonyl)-2,4-difluorophenyl]-3-fluoropyrrolidine-1-sulfonamide]	5 to 50	35 to 70	1 to 10	> 70

The next lines start with the values.

DC50 (BRAF V600E) [nM]	Dmax (BRAF V600E) [%]	DC50 (BRAF G466V) [nM]	Dmax (BRAF G466V) [%]	SMILES
5 to 50	35 to 70	< 1	35 to 70	O=C1CC[C@H](N2Cc3cc(C4CCN(CC5CCN(c6ccc(-c7cnc8[nH]cc(C(=O)c9c(F)ccc(NS(=O)(=O)N%10CC[C@@H](F)C%10)c9Cl)c8c7)cc6)CC5)CC4)ccc3C2=O)C(=O)N1 [Compound 252, (3R)-N-{2-chloro-3-[5-(4-{4-[(4-{2-[(3S)-2,6-dioxopiperidin-3-yl]-1-oxo-2,3-dihydro-1H-isoindol-5-yl}piperidin-1-yl)methyl]piperidin-1-yl}phenyl)-1H-pyrrolo [2,3-b]pyridine-3-carbonyl]-4-fluorophenyl}-3-fluoropyrrolidine-1-sulfonamide]
5 to 50	35 to 70	1 to 10	35 to 70	Cc1c(NS(=O)(=O)N2CC[C@@H](F)C2)ccc(F)c1C(=O)c1c[nH]c2ncc(-c3ccc(N4CCC(CN5CCC(c6ccc7c(c6)CN([C@H]6CCC(=O)NC6=O)C7=O)CC5)CC4)cc3)cc12 [Compound 253, (3R)-N-{3-[5-(4-{4-[(4-{2-[(3S)-2,6-dioxopiperidin-3-yl]-1-oxo-2,3-dihydro-1H-isoindol-5-yl}piperidin-1-yl)methyl]piperidin-1-yl}phenyl)-1H-pyrrolo [2,3-b]pyridine-3-carbonyl]-4-fluoro-2-methylphenyl}-3-fluoropyrrolidine-1-sulfonamide]
5 to 50	< 35	1 to 10	35 to 70	C[C@H]1CC[C@H](C)N1S(=O)(=O)Nc1ccc(F)c(C(=O)c2c[nH]c3ncc(-c4ccc(N5CCC(CN6CCC(c7ccc8c(c7)CN([C@H]7CCC(=O)NC7=O)C8=O)CC6)CC5)cc4)cc23)c1F [Compound 262, (2S,5S)-N-{3-[5-(4-{4-[(4-{2-[(3S)-2,6-dioxopiperidin-3-yl]-1-oxo-2,3-dihydro-1H-isoindol-5-yl}piperidin-1-yl)methyl]piperidin-1-yl}phenyl)-1H-pyrrolo [2,3-b]pyridine-3-carbonyl]-2,4-difluorophenyl}-2,5-dimethylpyrrolidine-1-sulfonamide]
50 to 500	< 35	1 to 10	35 to 70	C[C@H]1CC[C@H](C)N1S(=O)(=O)Nc1ccc(F)c(C(=O)c2c[nH]c3ncc(-c4ccc(N5CCC(CN6CCC(c7ccc8c(c7)CN(C7CCC(=O)NC7=O)C8=O)CC6)CC5)cc4)cc23)c1F (stereo partly drawn) [Compound 263, (2S,5S)-N-[3-(5-{4-[4-({4-[2-(2,6-dioxopiperidin-3-yl)-1-oxo-2,3-dihydro-1H-isoindol-5-yl]piperidin-1-yl}methyl)piperidin-1-yl]phenyl}-1H-pyrrolo[2,3-b]pyridine-3-carbonyl)-2,4-difluorophenyl]-2,5-dimethylpyrrolidine-1-sulfonamide]
5 to 50	35 to 70	1 to 10	35 to 70	C[C@H]1CCCN1S(=O)(=O)Nc1ccc(F)c(C(=O)c2c[nH]c3ncc(-c4ccc(N5CCC(CN6CCC(c7ccc8c(c7)CN(C7CCC(=O)NC7=O)C8=O)CC6)CC5)cc4)cc23)c1F (stereo partly drawn) [Compound 264, (2S)-N-[3-(5-{4-[4-({4-[2-(2,6-dioxopiperidin-3-yl)-1-oxo-2,3-dihydro-1H-isoindol-5-yl]piperidin-1-yl}methyl)piperidin-1-yl]phenyl}-1H-pyrrolo[2,3-b]pyridine-3-carbonyl)-2,4-difluorophenyl]-2-methylpyrrolidine-1-sulfonamide]

Source: patent US12180193B2, “Accelerating fibrosarcoma protein degrading compounds and associated methods of use” (Arvinas Operations, Inc., priority 2020, dated 2024)
